# Tested on: COS-1 cells
# Test: In vitro mammalian cytotoxicity assay (Resazurin)
row,SMILES,In Vitro Cytotoxicity
1,CN(C)[C@@H]1C(O)=C(C(N)=O)C(=O)[C@@]2(C#N)C(O)=C3C(=O)c4c(O)ccc(-c5cnccn5)c4C[C@@]3(N)C[C@@]12N [UX],* (toxicities greater than >25 μg/ml are represented by *)
2,"CN(C)[C@@H]1C(O)=C(C(N)=O)C(=O)[C@@]2(C#N)C(O)=C3C(=O)c4c(O)ccc(C#CCCCCC#Cc5ccc(O)c6c5C[C@@]5(N)C[C@@]7(N)[C@H](N(C)C)C(O)=C(C(N)=O)C(=O)[C@@]7(C#N)C(O)=C5C6=O)c4C[C@@]3(N)C[C@@]12N [Compound NB, 1,8-Di-7-Sancyclinyl-1,8-Heptyne]",* (toxicities greater than >25 μg/ml are represented by *)
3,CC(C)CNCc1cc(N(C)C)c2c(c1O)C(=O)C1=C(O)[C@]3(C#N)C(=O)C(C(N)=O)=C(O)[C@@H](N(C)C)[C@]3(N)C[C@]1(N)C2 [ML],* (toxicities greater than >25 μg/ml are represented by *)
4,CN(C)c1cc(NCc2ccc(OC(F)(F)F)cc2)c(O)c2c1C[C@@]1(N)C[C@@]3(N)[C@H](N(C)C)C(O)=C(C(N)=O)C(=O)[C@@]3(C#N)C(O)=C1C2=O [MQ],** (toxicities less than 25 μg/mL are represented by **)
5,Cc1sc(Nc2ccc3c(c2O)C(=O)C2=C(O)[C@]4(C#N)C(=O)C(C(N)=O)=C(O)[C@@H](N(C)C)[C@]4(N)[C@@H](O)[C@]2(N)[C@H]3O)nc1-c1ccccc1 [DW],** (toxicities less than 25 μg/mL are represented by **)
6,CC(=O)OCCCC(C)(C)c1ccc2c(c1O)C(=O)C1=C(O)[C@]3(C#N)C(=O)C(C(N)=O)=C(O)[C@@H](N(C)C)[C@]3(N)[C@@H](O)[C@]1(N)[C@H]2N [BA],** (toxicities less than 25 μg/mL are represented by **)
7,CN(C)[C@@H]1C(O)=C(C(N)=O)C(=O)[C@@]2(C#N)C(O)=C3C(=O)c4c(O)ccc(-c5ccc(I)cc5)c4C[C@@]3(N)C[C@@]12N [CW],** (toxicities less than 25 μg/mL are represented by **)
8,CCCC#Cc1cc(N(C)C)c2c(c1O)C(=O)C1=C(O)[C@]3(C#N)C(=O)C(C(N)=O)=C(O)[C@@H](N(C)C)[C@]3(N)C[C@]1(N)C2 [KX],** (toxicities less than 25 μg/mL are represented by **)
9,CN(C)[C@@H]1C(O)=C(C(N)=O)C(=O)[C@@]2(C#N)C(O)=C3C(=O)c4c(ccc(Nc5nc(C6C7CC8CC(C7)CC6C8)cs5)c4O)[C@H](O)[C@@]3(N)[C@H](O)[C@@]12N (stereo partly shown) [DX],** (toxicities less than 25 μg/mL are represented by **)
10,CO/N=C(/C)c1cc(C(C)(C)C)c(O)c2c1C[C@@]1(N)C[C@@]3(N)[C@H](N(C)C)C(O)=C(C(N)=O)C(=O)[C@@]3(C#N)C(O)=C1C2=O [RA],** (toxicities less than 25 μg/mL are represented by **)
11,CCCCCc1cc(CC2C(=O)c3ccccc3C2=O)c(O)c2c1C[C@@]1(N)C[C@@]3(N)[C@H](N(C)C)C(O)=C(C(N)=O)C(=O)[C@@]3(C#N)C(O)=C1C2=O [LA],** (toxicities less than 25 μg/mL are represented by **)
12,CN(C)c1cc(-c2ccoc2)c(O)c2c1C[C@@]1(N)C[C@@]3(N)[C@H](N(C)C)C(O)=C(C(N)=O)C(=O)[C@@]3(C#N)C(O)=C1C2=O [SN],** (toxicities less than 25 μg/mL are represented by **)
13,CN(C)[C@@H]1C(O)=C(C(N)=O)C(=O)[C@@]2(C#N)C(O)=C3C(=O)c4c(ccc(-c5ccc(C(=O)F)c6ccccc56)c4O)[C@H](N)[C@@]3(N)[C@H](O)[C@@]12N [PO],** (toxicities less than 25 μg/mL are represented by **)
14,COc1cccc(C#Cc2ccc(O)c3c2C[C@@]2(N)C[C@@]4(N)[C@H](N(C)C)C(O)=C(C(N)=O)C(=O)[C@@]4(C#N)C(O)=C2C3=O)c1 [GU],** (toxicities less than 25 μg/mL are represented by **)
15,CN(C)[C@@H]1C(O)=C(C(N)=O)C(=O)[C@@]2(C#N)C(O)=C3C(=O)c4c(O)ccc(-c5ccccc5)c4C[C@@]3(N)C[C@@]12N [LK],** (toxicities less than 25 μg/mL are represented by **)
16,CN(C)[C@@H]1C(O)=C(C(N)=O)C(=O)[C@@]2(C#N)C(O)=C3C(=O)c4c(O)ccc(CCc5ccccc5)c4C[C@@]3(N)C[C@@]12N [IN],** (toxicities less than 25 μg/mL are represented by **)
17,CN(C)CC#Cc1cc(C(C)(C)C)c(O)c2c1C[C@@]1(N)C[C@@]3(N)[C@H](N(C)C)C(O)=C(C(N)=O)C(=O)[C@@]3(C#N)C(O)=C1C2=O [OH],** (toxicities less than 25 μg/mL are represented by **)
18,"COC(=O)c1cc(N(C)C)c2c(c1O)C(=O)C1=C(O)[C@]3(C#N)C(=O)C(C(N)=O)=C(O)[C@@H](N(C)C)[C@]3(N)C[C@]1(N)C2 [Compound TC, 9-Minocycline methyl ester]",* (toxicities greater than >25 μg/ml are represented by *)
19,CN(C)[C@@H]1C(O)=C(C(N)=O)C(=O)[C@@]2(C#N)C(O)=C3C(=O)c4c(O)ccc(-c5ccc(CNCc6ccccc6)cc5)c4C[C@@]3(N)C[C@@]12N [HP],** (toxicities less than 25 μg/mL are represented by **)
20,CCCCOC(=O)Nc1cc(N(C)C)c2c(c1O)C(=O)C1=C(O)[C@]3(C#N)C(=O)C(C(N)=O)=C(O)[C@@H](N(C)C)[C@]3(N)C[C@]1(N)C2 [KI],** (toxicities less than 25 μg/mL are represented by **)

row,SMILES,In Vitro Cytotoxicity
1,Cc1csc(-c2ccc(O)c3c2C[C@@]2(N)C[C@@]4(N)[C@H](N(C)C)C(O)=C(C(N)=O)C(=O)[C@@]4(C#N)C(O)=C2C3=O)c1 [GN],** (toxicities less than 25 μg/mL are represented by **)
2,CN(C)[C@@H]1C(O)=C(C(N)=O)C(=O)[C@@]2(C#N)C(O)=C3C(=O)c4c(O)ccc(OC5=CC(c6cccc([N+](=O)O)c6)=CC5)c4C[C@@]3(N)C[C@@]12N [EC],* (toxicities greater than >25 μg/ml are represented by *)
3,CN(C)[C@@H]1C(O)=C(C(N)=O)C(=O)[C@@]2(C#N)C(O)=C3C(=O)c4c(O)c(CN)cc(-c5cccc([N+](=O)O)c5)c4C[C@@]3(N)C[C@@]12N [KB],** (toxicities less than 25 μg/mL are represented by **)
4,COc1ccc(-c2ccc(O)c3c2C[C@@]2(N)C[C@@]4(N)[C@H](N(C)C)C(O)=C(C(N)=O)C(=O)[C@@]4(C#N)C(O)=C2C3=O)cc1 [QF],** (toxicities less than 25 μg/mL are represented by **)
5,CN(C)[C@@H]1C(O)=C(C(N)=O)C(=O)[C@@]2(C#N)C(O)=C3C(=O)c4c(O)ccc(C#Cc5ccccc5F)c4C[C@@]3(N)C[C@@]12N [GH],** (toxicities less than 25 μg/mL are represented by **)
6,COc1ccc(-c2ccc3c(c2O)C(=O)C2=C(O)[C@]4(C#N)C(=O)C(C(N)=O)=C(O)[C@@H](N(C)C)[C@]4(N)[C@@H](O)[C@]2(N)C3N)cc1 (stereo partly shown) [AZ],** (toxicities less than 25 μg/mL are represented by **)
7,CN(C)[C@@H]1C(O)=C(C(N)=O)C(=O)[C@@]2(C#N)C(O)=C3C(=O)c4c(ccc(Nc5nc(-c6cccc([N+](=O)O)c6)cs5)c4O)C[C@@]3(N)C[C@@]12N [ED],** (toxicities less than 25 μg/mL are represented by **)
8,CCCN(CCC)Cc1ccc(-c2ccc(O)c3c2C[C@@]2(N)C[C@@]4(N)[C@H](N(C)C)C(O)=C(C(N)=O)C(=O)[C@@]4(C#N)C(O)=C2C3=O)c2ccccc12 [OP],** (toxicities less than 25 μg/mL are represented by **)
9,"CC#Cc1ccc(O)c2c1CC1CC3[C@H](N(C)C)C(O)=C(C(N)=O)C(=O)[C@@]3(O)C(O)=C1C2=O (stereo partly shown) [Compound HC, 7-(Propynyl)-Sancycline]",** (toxicities less than 25 μg/mL are represented by **)
10,CN(C)c1cc(/C=C/c2ccc(F)cc2)c(O)c2c1C[C@@]1(N)C[C@@]3(N)[C@H](N(C)C)C(O)=C(C(N)=O)C(=O)[C@@]3(C#N)C(O)=C1C2=O [CD],** (toxicities less than 25 μg/mL are represented by **)
11,CCOC(=O)C(NCc1ccc(OC)c(-c2ccc(O)c3c2C[C@@]2(N)C[C@@]4(N)[C@H](N(C)C)C(O)=C(C(N)=O)C(=O)[C@@]4(C#N)C(O)=C2C3=O)c1)C(C)C (stereo partly shown) [NZ],** (toxicities less than 25 μg/mL are represented by **)
12,CN(C)[C@@H]1C(O)=C(C(N)=O)C(=O)[C@@]2(C#N)C(O)=C3C(=O)c4c(O)cccc4/C(=C\c4ccc(Cl)cc4)[C@@]3(N)[C@H]([S+](N)[O-])[C@@]12N (stereo partly shown) [BY],** (toxicities less than 25 μg/mL are represented by **)
13,CCCCCOC(=O)NCc1cc(N(C)C)c2c(c1O)C(=O)C1=C(O)[C@]3(C#N)C(=O)C(C(N)=O)=C(O)[C@@H](N(C)C)[C@]3(N)C[C@]1(N)C2 [NF],** (toxicities less than 25 μg/mL are represented by **)
14,CCOP(=O)(OCC)C(Nc1ccccc1)c1ccc(-c2cc(N(C)C)c3c(c2O)C(=O)C2=C(O)[C@]4(C#N)C(=O)C(C(N)=O)=C(O)[C@@H](N(C)C)[C@]4(N)C[C@]2(N)C3)cc1 (stereo partly shown) [KP],* (toxicities greater than >25 μg/ml are represented by *)
15,CN(C)[C@@H]1C(O)=C(C(N)=O)C(=O)[C@@]2(C#N)C(O)=C3C(=O)c4c(O)ccc(-c5ccc(I)c(C=O)c5)c4C[C@@]3(N)C[C@@]12N [PL],** (toxicities less than 25 μg/mL are represented by **)
16,CC(C)S(=O)(=O)NCC#Cc1cc(N(C)C)c2c(c1O)C(=O)C1=C(O)[C@]3(C#N)C(=O)C(C(N)=O)=C(O)[C@@H](N(C)C)[C@]3(N)C[C@]1(N)C2 [JY],* (toxicities greater than >25 μg/ml are represented by *)
17,CN(C)[C@@H]1C(O)=C(C(N)=O)C(=O)[C@@]2(C#N)C(O)=C3C(=O)c4c(ccc(N5CCCCC5)c4O)[C@H](N)[C@@]3(N)[C@H](O)[C@@]12N [SA],* (toxicities greater than >25 μg/ml are represented by *)
18,CCCCOCCCNCc1ccc(OC)c(-c2ccc(O)c3c2C[C@@]2(N)C[C@@]4(N)[C@H](N(C)C)C(O)=C(C(N)=O)C(=O)[C@@]4(C#N)C(O)=C2C3=O)c1 [NL],* (toxicities greater than >25 μg/ml are represented by *)
19,CN(C)c1cc(CCC2CCCC2)c(O)c2c1C[C@@]1(N)C[C@@]3(N)[C@H](N(C)C)C(O)=C(C(N)=O)C(=O)[C@@]3(C#N)C(O)=C1C2=O [KM],** (toxicities less than 25 μg/mL are represented by **)
20,CN(C)c1cc(CNC(=O)Nc2ccccc2)c(O)c2c1C[C@@]1(N)C[C@@]3(N)[C@H](N(C)C)C(O)=C(C(N)=O)C(=O)[C@@]3(C#N)C(O)=C1C2=O [ME],* (toxicities greater than >25 μg/ml are represented by *)

# From patent US20050070510A1, “Substituted tetracycline compounds as synergistic antifungal agents” (Paratek Pharmaceuticals, Inc., priority 2001, published 2005)
